# Assay results: patent US20220354957A1, “PEPTIDES TARGETING MACROPHAGES, AND CONJUGATES, COMPOSITIONS, AND USES THEREOF” (Twinpig Biolab, Inc., priority 2021, published 2022)
# What was measured:
# Format in all cases: cell-based, human
# [1] = Cytotoxicity in in vitro sepsis model (CCK-8); conditions: compared to control, read-out: inhibition (cytotoxic effect) in LPS-M1 macrophages
# Procedure: (§1) THP-1 cells (1×10^4 cells/well) were differentiated into macrophages with 100 nM PMA (MO) for 24 h and polarized into classical M1 macrophages by treatment of IFN-γ (20 ng/ml) and LPS (100 ng/ml) and LPS-stimulated macrophages (LPS-M1) were induced by LPS (1 m/ml) treatment for 24h. Cells were treated with 1.5 μM of A26K for 1 hour and further incubated in RPMI1640 growth medium for 24 hours. Cell viability was analyzed using the CCK-8 assay. CCK-8 reagent was added to each well and incubated for 1.5-2 hours. Absorbance was measured at 450 nm with a microplate reader.
# [2] = system: LPS-M1 macrophages; test: Expression of pro-inflammatory genes in in vitro sepsis model (real-time quantitative PCR); conditions: 1.5 μM for 1 h, compared to LPS-M1 macrophages
# Procedure: THP-1 cells (2×10^5 cells/well) were differentiated into macrophages with 100 nM PMA (MO) for 24h and polarized into classical M1 macrophages by treatment of IFN-γ (20 ng/ml) and LPS (100 ng/ml) and LPS-M1 macrophages were induced by LPS (1 m/ml) treatment for 2 h. Polarized cells were treated with 1.5 μM of A26K for 1 hour and further incubated in RPMI1640 growth medium for 24 hours. Expression levels of pro-inflammatory genes (IL-8, TNF-α, NF-kB, IL-1(3 and CXCL10) were quantified by real-time quantitative PCR.
# [3] = system: M1 macrophages; test: Cell viability test (CCK-8) of dKLA-conjugated alanine-substituted peptides; conditions: 1.5 μM, 1 hour then 24 hours, CCK-8, compared to control M1 macrophage
# Procedure: (§2) THP-1 monocytes were differentiated into macrophages (M0) by 24 h incubation with 100 nM phorbol 12-myristate 13-acetate (PMA, Sigma) followed by 24 h incubation in RPMI medium (Invitrogen). Macrophages were polarized in M1 macrophages (M1) by incubation with 20 ng/ml of IFN-γ (Prospec) and 100ng/m1 of LPS (Sigma). Macrophage M2 polarization(M2) was obtained by incubation with 20 ng/ml of interleukin (IL) 4 (Prospec) and 20 ng/ml of interleukin 13 (Pro spec).
# (§3) Polarized cells were treated with 1.5 μM MpepK, A12K, A14K, A17K, A18K, A22K, A25K or A26K peptides for 1 hour and further incubated in RPMI1640 growth medium for 24 hours. Cell viability was analyzed using the CCK-8 assay: CCK-8 reagent (Enzo Life Sciences) was added to each well; incubation was continued for 2 hours, and absorbance was measured at 450 nm with a microplate reader (Molecular Devices).
# as §1
# [4] = as above
# Procedure: as §2, §3, §1
smiles,measurement,setting,value
CC[C@H](C)[C@H](NC(=O)[C@H](CC(C)C)NC(=O)[C@H](C)NC(=O)[C@@H]1CCCN1C(=O)[C@H](CC(C)C)NC(=O)CNC(=O)[C@@H](NC(=O)[C@@H](NC(=O)[C@H](CC(C)C)NC(=O)[C@@H](NC(C)=O)C(C)C)[C@@H](C)O)[C@@H](C)O)C(=O)N[C@@H](CO)C(=O)N[C@@H](Cc1c[nH]c2ccccc12)C(=O)N[C@H](C(=O)N[C@@H](CCCCN)C(=O)N[C@@H](CCCNC(=N)N)C(=O)N[C@@H](CCCCN)C(=O)N[C@@H](CCCNC(=N)N)C(=O)N[C@@H](CCC(N)=O)C(=O)N[C@@H](C)C(=O)NCC(=O)NCC(=O)NCC(=O)NCC(=O)N[C@@H](CO)C(=O)N[C@H](CCCCN)C(=O)N[C@H](CC(C)C)C(=O)N[C@H](C)C(=O)N[C@H](CCCCN)C(=O)N[C@H](CC(C)C)C(=O)N[C@H](C)C(=O)N[C@H](CCCCN)C(=O)N[C@H](CCCCN)C(=O)N[C@H](CC(C)C)C(=O)N[C@H](C)C(=O)N[C@H](CCCCN)C(=O)N[C@H](CC(C)C)C(=O)N[C@H](C)C(=O)N[C@H](CCCCN)C(=O)O)[C@@H](C)CC [A26K],inhibition at 1.5 µM,[1],37%
same,"expression levels of IL8, TNF-α, IL-1β, NF-kB and CXCL10 enhanced by LPS stimulation",[2],significantly inhibited
same,cytotoxic effect in M1 macrophages,[3],great significant selective cytotoxic effect
same,cytotoxicity,"[4]; 1.5 μM, compared to control, read-out: inhibition of viability in M1 macrophages",53%
same,IC50,"[4]; 0.01-10 μM, read-out: cytotoxicity IC50 in M1 macrophages",1.19 µM
